In patent publication US20220370397A1, “METHODS AND COMPOSITIONS FOR TREATMENT OF CANCER” (Enzychem Lifesciences Corporation, priority 2019, published 2022):

What was measured:
[1] = tested on: neutrophil-activated MDA-MB-231 breast cancer cells; test: Cell growth and cell cycle activity in neutrophil-activated cancer cells; format: cell-based
Source text: Compared to negative control each week: *P<0.05, **P<0.01, ***P<0.001 (each experiment n=5). N.S., not significant. Compared to neutrophil stimulated only group each week: #P<0.05, ##P<0.01, ###P<0.001 (each experiment n=5). N.S.′, not significant.

PAR2 = PAR2 degradation (western blot, immunoprecipitation, ubiquitination assay); format: cell-based; settings: PLAG and neutrophil co-treated cancer cells / cancer tissues
tumor in Xenograft mice = test: PLAG alone in Xenograft mice (tumor mass, neutrophil infiltration, chemokines, cell cycle factors by IHC); format: in vivo, mouse
Source text: Compared to positive control: *P<0.05, ***P<0.001 (each experiment n=5).
Compared to positive control: *P<0.05, **P<0.01 (each experiment n=5).
N.S., not significant. Compared to positive control; #P<0.05, ##P<0.01, ###P<0.001 (each experiment n=5). N.S.′, not significant.
Compared to positive control: *P<0.05, **P<0.01 (each experiment n=5). N.S., not significant.

[2] = tested on: MB49 murine bladder cancer cells; test: MB49 bladder cancer syngeneic model, PLAG with or without PD-L1 antibody; format: in vivo, C57BL/6 mice
Source text: The syngeneic model was used (n=6) to investigate the enhanced anti-tumor effect of PD-L1 antibody with the addition of PLAG. MB49 murine bladder cancer cells were implanted into the C57BL/6 mice subcutaneously and bred for 5 weeks. After a week from tumor implantation, PLAG at different dosages (50/100 mpk) were daily administered orally for another 4 weeks with or without 5 mpk PD-L1 antibody (10F.9G2). PD-L1 antibody was delivered via IP injection once a week. (FIG. 7, Table 1)

LLC-1 lung carcinoma = test: LLC-1 syngeneic model, PLAG with or without aPD-1; format: in vivo, C57BL/6 mice
Source text: To investigate the enhanced anti tumor effect of the anti-PD-1 antibody (aPD-1 with the addition of 1-palmitoyl-2-linoleoyk-3-acetyl-rac-glycerol (PLAG), the syngeneic model was used (n=6/group), LLC-1 lung carcinoma was implanted into C57BL/6 mice subcutaneously. PLAG was daily administrated for 4 weeks with or without aPD-1 (RMP 1-14. aPD-1 was delivered via IP injection once a week. The degree of infiltrated lymphocyte population and neutrophils in the tumor and blood on the sacrificed day were analyzed (FIG. 12, Table 2).

[3] = tested on: MDA-MB-231 breast cancer Xenograft; test: MDA-MB-231 breast cancer Xenograft model, AC-regimen alone and PLAG co-treatment; format: in vivo, mouse
Protocol: MDA-MB-231 breast cancer Xenograft model was used. Tumor growth was evaluated in the AC-regimen alone and PLAG co-treated animals. AC-regimen was delivered via IP injection twice a week with dose of 2/20 and 5/50 mph (Doxorubicin/Cyclophosphamide), and PLAG was daily administered with 100 and 250 mpk. Tumor growth was calculated with 3 day intervals. Neutrophil chemotaxis related chemokines, CXCL1/2/8 and circulating neutrophils were also evaluated with 2 week internal. Expression of apoptosis molecular markers, Bax/Bak and tumor-infiltrating neutrophil (TIN) in the tumor lesion was analyzed by immunohistochemistry (IHC).

Compound: CCCCC/C=C\C/C=C\CCCCCCCC(=O)OC(COC(C)=O)COC(=O)CCCCCCCCCCCCCCC (stereo not drawn) [PLAG, 1-palmitoyl-2-linoleoyl-3-acetylglycerol]
- cell cycle activity ([1]; neutrophil activated cancer cells): inhibitory effect
- cell growth ([1]; neutrophil-activated MDA-MB-231 cells, dose-dependent): inhibition of cell growth
- PAR2 degradation (PAR2): inducing PAR2 degradation
- expression of neutrophil chemotactic chemokine in cancer tissues (tumor in Xenograft mice): effectively regulate
- infiltration of neutrophils in cancer tissues (tumor in Xenograft mice): control excessive infiltration of neutrophils
- cell cycle of cancer tissues / excessive growth (tumor in Xenograft mice; without additional chemotherapeutic agents): regulate excessive growth by inhibiting the cell cycle
- number of TINs ([2]; PLAG alone): effectively reduced
- tumor burden compared to positive control ([2]; PLAG alone 50 and 100 mpk, oral daily, p<0.05): decreased to a significant value
- growth of the tumor compared to PD-L1 antibody alone ([2]; PLAG and PD-L1 antibody simultaneously): significantly reduced
- neutrophil-to-lymphocyte ratio (NLR) level compared to PD-L1 antibody alone ([2]; PLAG and PD-L1 antibody, blood, every two weeks): significantly decreased
- chemokine secretion ([2]; PLAG treated groups): reduced
- tumor burden compared to positive control (LLC-1 lung carcinoma; PLAG alone 50 and 100 mpk): significantly reduced
- activity and infiltration of cytotoxic T-Lymphocyte (CTLs) in the tumor compared to aPD-1 alone (LLC-1 lung carcinoma; PLAG co-treated with aPD-1): effectively increased
- neutrophil to lymphocyte ratio levels compared to aPD-1 alone (LLC-1 lung carcinoma; PLAG co-treated with aPD-1): decreased remarkably
- population of Th 17 compared to the positive control (LLC-1 lung carcinoma; PLAG co-treated with aPD-1): significant reduction
- tumor reduction compared to aPD-1 alone (LLC-1 lung carcinoma; PLAG co-treated with aPD-1): 18
- DAMP (adenosine) originated from tumor, plasma (LLC-1 lung carcinoma; PLAG treatment): rapid removal
- degree of neutrophil infiltration in the tumor (LLC-1 lung carcinoma; upon PLAG treatment): effectively reduced
- tumor tissue on the sacrifice day ([3]; 250 mpk PLAG co-treated with 5/50 AC-regimen): no tumor tissues were found
- tumor burden compared with AC-regimen alone group ([3]; PLAG 100 and 250 mpk daily co-treated with 5/50 AC-regimen, p<0.05): significantly decreased in a concentration-dependent manner
- tumor-infiltrating neutrophil (TIN) ([3]; PLAG added to AC-regimen, IHC): Significantly reduced
- chemokine expression ([3]; PLAG added to AC-regimen, chemokine analysis): Significantly reduced
- chemokine expression ([3]; PLAG alone): reduced
- tumor growth ([3]; PLAG alone): interruption of tumor growth
- tumor-infiltrating neutrophil (TIN) ([3]; PLAG alone): reduced
- kind of combined effect on regression of tumor burden ([3]; PLAG co-treated with AC-regimen): synergistic effect
- tumor burden compared with AC-regimen alone ([3]; PLAG co-treated with AC-regimen, until sacrifice): smaller tumor burden than that in AC-regimen alone
